Where two headings read alike, the source gives them in different places.
Experiments:
Human C5 [1] = target: T1, Human C5 (Homo sapiens, UniProt P01031); assay: Surface plasmon resonance (SPR), immobilized human C5 (Example 9, Table 18); format: binding
T1 construct: purchased Complement Technology
Source text: Morrison and Boyd in “Organic Chemistry”, 6th edition, Prentice Hall (1992)] and validated for proper structure by mass spectrometry.

purified human C5 = purified human C5 (Homo sapiens, UniProt P01031); assay: Red blood cell (RBC) hemolysis assay, optical, absorbance 412 nm (Example 10, Table 19); format: cell-based; conditions: antibody-sensitized sheep erythrocytes, […] human C5 depleted sera
Chain of purified human C5 (P01031 19-1676): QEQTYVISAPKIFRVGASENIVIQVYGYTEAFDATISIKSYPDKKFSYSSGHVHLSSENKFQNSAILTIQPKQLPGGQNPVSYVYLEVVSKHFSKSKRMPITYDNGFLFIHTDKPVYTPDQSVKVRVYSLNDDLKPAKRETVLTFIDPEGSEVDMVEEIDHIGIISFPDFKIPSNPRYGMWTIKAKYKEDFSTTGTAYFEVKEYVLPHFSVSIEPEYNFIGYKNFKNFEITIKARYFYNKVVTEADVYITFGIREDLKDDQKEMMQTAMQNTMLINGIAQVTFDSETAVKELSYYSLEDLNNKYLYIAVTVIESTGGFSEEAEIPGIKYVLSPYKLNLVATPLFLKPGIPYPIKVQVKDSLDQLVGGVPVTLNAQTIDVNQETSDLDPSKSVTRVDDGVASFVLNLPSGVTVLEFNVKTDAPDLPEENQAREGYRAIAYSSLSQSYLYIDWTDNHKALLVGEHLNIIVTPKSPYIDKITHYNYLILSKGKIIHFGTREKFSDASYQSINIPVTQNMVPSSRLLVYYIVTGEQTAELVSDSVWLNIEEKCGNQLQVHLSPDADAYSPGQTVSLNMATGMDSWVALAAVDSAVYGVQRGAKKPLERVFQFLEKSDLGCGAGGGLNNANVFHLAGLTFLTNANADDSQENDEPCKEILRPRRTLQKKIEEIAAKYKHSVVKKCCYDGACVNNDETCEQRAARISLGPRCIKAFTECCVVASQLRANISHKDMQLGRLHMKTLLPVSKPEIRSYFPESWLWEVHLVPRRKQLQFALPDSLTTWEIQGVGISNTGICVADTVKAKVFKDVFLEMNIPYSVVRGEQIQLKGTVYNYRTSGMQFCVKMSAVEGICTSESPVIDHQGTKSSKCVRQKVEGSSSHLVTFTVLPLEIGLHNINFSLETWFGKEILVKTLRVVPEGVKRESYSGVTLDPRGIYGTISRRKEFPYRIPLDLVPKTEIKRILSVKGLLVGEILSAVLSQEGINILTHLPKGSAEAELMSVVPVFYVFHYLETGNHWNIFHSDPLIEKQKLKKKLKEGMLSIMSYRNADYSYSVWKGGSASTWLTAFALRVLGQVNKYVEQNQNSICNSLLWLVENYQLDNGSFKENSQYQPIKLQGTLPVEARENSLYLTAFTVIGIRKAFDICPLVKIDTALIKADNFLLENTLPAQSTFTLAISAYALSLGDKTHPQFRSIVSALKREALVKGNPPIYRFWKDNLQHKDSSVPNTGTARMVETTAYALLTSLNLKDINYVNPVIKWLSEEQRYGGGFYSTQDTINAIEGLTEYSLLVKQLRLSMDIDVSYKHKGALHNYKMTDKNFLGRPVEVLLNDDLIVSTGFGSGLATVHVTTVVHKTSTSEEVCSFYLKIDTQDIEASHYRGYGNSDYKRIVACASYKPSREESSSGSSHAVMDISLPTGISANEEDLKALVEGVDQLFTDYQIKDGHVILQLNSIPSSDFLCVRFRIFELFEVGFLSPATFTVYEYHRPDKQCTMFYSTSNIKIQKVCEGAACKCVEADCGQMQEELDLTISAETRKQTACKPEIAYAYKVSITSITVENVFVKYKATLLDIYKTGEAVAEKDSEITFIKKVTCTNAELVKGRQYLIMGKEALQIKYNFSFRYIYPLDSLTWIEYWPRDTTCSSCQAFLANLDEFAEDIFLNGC

Human C5 [2] = target: T1, Human C5; assay: Surface plasmon resonance (SPR), compounds on immobilized human C5 (Example 2, Table 5); format: binding; conditions: lowest value where a range of compound concentrations were analyzed
[3] = immobilized human C5, equilibrium dissociation constant, read-out: SPR C5 EQ KD
[4] = 0.5 nM purified human C5, absorbance 412 nm, read-out: RBC Hemolysis IC50
[5] = 0.5 nM human C5, read-out: IC50
[6] = SPR, human C5 immobilized, read-out: equilibrium dissociation constant for interaction with C5

T1 sequence (P01031 19-1676): as above

Kd (Human C5 [1]; [3]) | Kd (Human C5 [1]; [6]) | Kd (Human C5 [2]) | SMILES | IC50 (purified human C5; [4]) | IC50 (purified human C5; [5])
7600 nM | – | – | COc1cc(CC(=O)N(C)C)c(NC(=O)N[C@@H](CO)c2ccccc2)cc1OCCCC(C)C [Compound C5INH-0440] | 3160 nM | –
300 nM | – | – | CNc1ccc(CNC(=O)Nc2ccc(OC)c(OCCCC(C)C)c2)cc1 [Compound C5INH-0443] | 1990 nM | –
184 nM | – | – | COc1ccc(NC(=O)NCc2ccc(N(C)CC(N)=O)cc2)cc1OCCCC(C)C [Compound C5INH-0446] | 2710 nM | –
204 nM | – | – | COc1ccc(NC(=O)NCc2ccc3c(ccn3CC(=O)N(C)C)c2)cc1OCCCC(C)C [Compound C5INH-0447] | 536 nM | –
885 nM | – | – | COc1ccc(NC(=O)NCc2cccc3cccnc23)cc1OCCCC(C)C [Compound C5INH-0450] | 298 nM | –
59 nM | – | – | COc1ccc(NC(=O)NCc2ccnc(NCCN3CCOCC3)c2OC)cc1OCCCC(C)C [Compound C5INH-0452] | 95.5 nM | –
25 nM | – | – | COc1ccc(NC(=O)NCc2ccnc(NCCN(C)C)c2OC)cc1OCCCC(C)C [Compound C5INH-0453] | 65.5 nM | –
284 nM | – | – | COc1ccc(NC(=O)NCc2ccnc(N)c2OC)cc1OCCCC(C)C [Compound C5INH-0454] | 301 nM | –
29 nM | – | – | COc1ccc(NC(=O)NCc2cccc(OC)c2O)cc1OCCCC(C)C [Compound C5INH-0456] | – | 7 nM
225 nM | – | – | COc1ccc(NC(=O)NCc2ccc3c(N)n[nH]c3c2)cc1OCCCC(C)C [Compound C5INH-0458] | 416 nM | –
578 nM | – | – | COc1ccc(NC(=O)NCc2ccc(Cn3ccnc3)cc2)cc1OCCCC(C)C [Compound C5INH-0460] | 725 nM | –
95 nM | – | – | COc1ccc(NC(=O)NCc2cccc(OCCN(C)C)c2)cc1OCCCC(C)C [Compound C5INH-0462] | 113 nM | –
280 nM | – | – | COc1ccc(NC(=O)NC(CO)c2cccc3c2ccn3C)cc1OCCCC(C)C (stereo not shown) [Compound C5INH-0463] | 808 nM | –
82 nM | – | – | COc1ccc(NC(=O)NCc2cccc(F)c2O)cc1OCCCC(C)C [Compound C5INH-0472] | 16 nM | < 20 nM
69 nM | – | – | COc1ccc(NC(=O)NCc2cc(F)ccc2O)cc1OCCCC(C)C [Compound C5INH-0473] | 21.5 nM | –
201 nM | – | – | COc1ccc(NC(=O)NCc2ccnc3c2ccn3CC2=NCCCN2)cc1OCCCC(C)C [Compound C5INH-0474] | 120 nM | –
40 nM | – | – | COc1ccc(NC(=O)NCc2cccc(O)c2O)cc1OCCCC(C)C [Compound C5INH-0476] | 8.5 nM | < 20 nM
1130 nM | – | – | COc1ccc(NC(=O)NC(CO)c2ccccc2)cc1COCCC(C)C (stereo not shown) [Compound C5INH-0477] | 1460 nM | –
770 nM | – | – | COc1ccc(F)cc1CNC(=O)Nc1ccc(OC)c(OCCCC(C)C)c1 [Compound C5INH-0484] | 150 nM | –
330 nM | – | – | COc1ccc(CNC(=O)Nc2ccc(OC)c(OCCCC(C)C)c2)c(O)c1 [Compound C5INH-0485] | 46.9 nM | –
25 nM | – | – | COc1ccc(NC(=O)NC(CO)c2cccc(OC)c2O)cc1OCCCC(C)C (stereo not shown) [Compound C5INH-0486] | – | 3 nM
100 nM | – | – | COc1ccc(NC(=O)NC(CO)c2cc(N)ccc2OC)cc1OCCCC(C)C (stereo not shown) [Compound C5INH-0488] | 12 nM | < 20 nM

Kd (Human C5 [1]; [3]) | Kd (Human C5 [1]; [6]) | Kd (Human C5 [2]) | SMILES | IC50 (purified human C5; [4]) | IC50 (purified human C5; [5])
364 nM | – | – | COc1ccc(NC(=O)NC(CO)c2cc(NC(C)=O)ccc2OC)cc1OCCCC(C)C (stereo not shown) [Compound C5INH-0489] | 177 nM | –
278 nM | – | – | COc1ccc(NC(=O)NCc2ccnc3c2ccn3CCCN2CCCC2)cc1OCCCC(C)C [Compound C5INH-0490] | 144 nM | –
62 nM | – | – | COc1ccc(NC(=O)NCc2ccnc3c2ccn3CCCN(C)C)cc1OCCCC(C)C [Compound C5INH-0491] | 83.5 nM | –
2070 nM | – | – | COc1ccc(NC(=O)N(C)Cc2cccc3ccn(C)c23)cc1OCCCC(C)C [Compound C5INH-0492] | 2650 nM | –
600 nM | – | – | COc1ccc(NC(=O)NCc2cccc(NC(C)=O)c2)cc1OCCCC(C)C [Compound C5INH-0496] | 400 nM | –
1400 nM | – | – | CNc1cccc(CNC(=O)Nc2ccc(OC)c(OCCCC(C)C)c2)c1 [Compound C5INH-0497] | 913 nM | –
1480 nM | – | – | COc1ccc(CNC(=O)Nc2ccc(OC)c(OCCCC(C)C)c2)cn1 [Compound C5INH-0498] | 4640 nM | –
334 nM | – | – | COc1ccc(NC(=O)NCc2cccc3c2ncn3S(=O)(=O)c2ncc[nH]2)cc1OCCCC(C)C [Compound C5INH-0500] | 556 nM | –
330 nM | – | – | COc1ccc(NC(=O)NC(C(=O)O)c2cccc(OC)c2O)cc1OCCCC(C)C (stereo not shown) [Compound C5INH-0501] | 468 nM | –
1910 nM | – | – | COCc1cccc(CNC(=O)Nc2ccc(OC)c(OCCCC(C)C)c2)c1 [Compound C5INH-0502] | 3090 nM | –
316 nM | – | – | COc1cc(CNC(C)=O)c(NC(=O)NCc2ccnc3[nH]ccc23)cc1OCCCC(C)C [Compound C5INH-0504] | 318 nM | –
16 nM | < 20 nM | – | COc1ccc(NC(=O)NCc2cccc3c2ccn3CC(=O)N(C)C)cc1OCCCC(C)C [Compound C5INH-0516] | 127 nM | –
10.7 nM | < 20 nM | – | COc1ccc(NC(=O)NCc2cc(F)cc3[nH]ccc23)cc1OCCCC(C)C [Compound C5INH-0517] | 369 nM | –
14 nM | < 20 nM | – | COc1ccc(NC(=O)NCc2cccc3c2ccn3Cc2ccncc2)cc1OCCCC(C)C [Compound C5INH-0518] | 300 nM | –
9.3 nM | < 20 nM | – | COc1ccc(NC(=O)NCc2cccc3c2ccn3CC2CCCN2C)cc1OCCCC(C)C (stereo not shown) [Compound C5INH-0519] | 96.7 nM | –
27 nM | – | – | COc1ccc(NC(=O)NCc2cccc3c2ccn3CCCN(C)C)cc1OCCCC(C)C [Compound C5INH-0524] | 65 nM | –
27 nM | – | – | COc1ccc(NC(=O)NCc2ccnc3c2ccn3CC(=O)N2CCN(C)CC2)cc1OCCCC(C)C [Compound C5INH-0526] | 31.5 nM | –
650 nM | – | – | COc1cc(CN(C)C(C)=O)c(NC(=O)NCc2ccnc3[nH]ccc23)cc1OCCCC(C)C [Compound C5INH-0527] | 2270 nM | –
260 nM | – | – | COc1ccc(NCCCN2CCOCC2)cc1CNC(=O)Nc1ccc(OC)c(OCCCC(C)C)c1 [Compound C5INH-0534] | 1110 nM | –
260 nM | – | – | COc1ccc(NCCCN(C)C)cc1CNC(=O)Nc1ccc(OC)c(OCCCC(C)C)c1 [Compound C5INH-0535] | 1040 nM | –
32 nM | – | – | COc1ccc(NC(=O)NCc2cccc3c2ncn3CCN(C)C)cc1OCCCC(C)C [Compound C5INH-0536] | 175 nM | –
81 nM | – | – | COc1ccc(NC(=O)NCc2cccc3[nH]ccc23)cc1OCCCC(C)C [Compound C5INH-0537] | 138 nM | –

Kd (Human C5 [1]; [3]) | Kd (Human C5 [1]; [6]) | Kd (Human C5 [2]) | SMILES | IC50 (purified human C5; [4]) | IC50 (purified human C5; [5])
79 nM | – | – | COc1ccc(NC(=O)NCc2ccnc3c2ccn3CC(=O)N(C)C)cc1OCCCC(C)C [Compound C5INH-0538] | 62.1 nM | –
430 nM | – | – | COc1cc(CCCCN(C)C)c(NC(=O)N[C@@H](CO)c2ccccc2OC)cc1OCCCC(C)C [Compound C5INH-0539] | 617 nM | –
210 nM | – | – | COc1ccc(NC(=O)NCc2ccnc3c2ccn3CCCN)cc1OCCCC(C)C [Compound C5INH-0544] | 130 nM | –
31 nM | – | – | COc1ccc(NC(=O)NCc2ccnc3c2ccn3CC2CCCN2C)cc1OCCCC(C)C (stereo not shown) [Compound C5INH-0545] | 89.5 nM | –
42 nM | – | – | COc1cc(CNC(C)=O)c(NC(=O)NCc2ccnc3c2ccn3CCCN(C)C)cc1OCCCC(C)C [Compound C5INH-0547] | 287 nM | –
– | – | 3100 nM | COc1ccc(NC(=O)NCc2ccc(Br)cc2)cc1OCCCC(C)C [SM0089] | – | –
– | – | 2100 nM | COc1ccc(NC(=O)NCc2cncnc2)cc1OCCCC(C)C [SM0090] | – | –
– | – | 990 nM | COc1ccc(NC(=O)N[C@@H](CO)C(C)(C)C)cc1OCCCC(C)C [SM0091] | – | –
– | – | 540 nM | COc1ccc(NC(=O)NC(CO)Cc2ccccc2)cc1OCCCC(C)C (stereo not shown) [SM0092] | – | –
– | – | 240 nM | CNC(=O)[C@H](NC(=O)Nc1ccc(OC)c(OCCCC(C)C)c1)c1ccccc1 [SM0093] | – | –
– | – | 380 nM | COc1ccc(NC(=O)N[C@@H](CO)c2ccccc2)cc1OCCN1CCC(O)CC1 [SM0094] | – | –
– | – | 1600 nM | COc1ccc(NC(=O)N[C@@H](CO)c2ccccc2)cc1OCc1ccccn1 [SM0095] | – | –
– | – | 2100 nM | CCCCn1ncc2ccc(NC(=O)N[C@@H](CO)c3ccccc3)cc21 [SM0096, 1-(1-butylindazol-6-yl)-3-[(1R)-2-hydroxy-1-phenyl-ethyl]urea] | – | –
– | – | 2200 nM | COc1ccc(NC(=O)NC2CCCCC2O)cc1OCCCC(C)C (stereo not shown) [SM0097] | – | –
– | – | 3800 nM | COc1ccc(NC(=O)N[C@@H](CO)c2ccccc2)cc1OCc1ccncc1 [SM0098] | – | –
– | – | 5700 nM | O=C(Nc1ccc2c(c1)OC(F)(F)O2)N[C@@H](CO)c1ccccc1 [SM0099] | – | –
– | – | 120 nM | COc1ccc(NC(=O)NCc2ccccc2CN(C)C)cc1OCCCC(C)C [SM0100] | – | –
– | – | 150 nM | COc1ccc(NC(=O)N[C@@H](CO)c2ccccc2)cc1OCCC1CC1 [SM0101] | – | –
– | – | 1700 nM | COc1ccc(NC(=O)N[C@@H](C(N)=O)c2ccccc2)cc1OCCCC(C)C [SM0102] | – | –
– | – | 1800 nM | COc1ccc(NC(=O)N[C@H]2c3ccccc3C[C@@H]2O)cc1OCCCC(C)C [SM0103] | – | –
– | – | 2600 nM | COc1ccc(NC(=O)N[C@@H](CO)c2ccccc2)cc1OCCN(C)C [SM0105, 1-[3-[2-(dimethylamino)ethoxy]-4-methoxy-phenyl]-3-[(1R)-2-hydroxy-1-phenyl-ethyl]urea] | – | –
